In patent US20190327975A1, “AN ANTIMICROBIAL COMPOSITION” (Conopco, Inc., d/b/a UNILEVER, priority 2016, published 2019):

Description: More particularly, silver ion solubility [Ag+], a value given in mol/L may be calculated using the formula: […]

[Cl][Ag] [Silver chloride]
Silver Ion Solubility [Ag+]: 13 µM
